Measured values taken from patent US12522582B2 (Gilead Sciences, Inc., priority 2022, dated 2026).
Where two headings read alike, the source gives them in different places.

Tested on: HSV-2 virus (MS strain)
Test: HSV-2 Cellomics Assay (immunofluorescence of HSV protein gD in infected ARPE-19 cells)
Details: Human alphaherpesvirus 2, ARPE-19, 16 h
[1] = read-out: EC50-HSV2-10% Human Serum

| Structure (SMILES) | EC50 [1] [nM] | EC50 (read-out: EC50-HSV2-FBS) [nM] |
| --- | --- | --- |
| CS(=N)(=O)c1cc2c(cc1F)CCN2C(=O)[C@@H]1Cc2ccc(-c3ccccn3)cc2C1 (mixture of isomers) [Example 39, (5-fluoro-1-((R)-5-(pyridin-2-yl)-2,3-dihydro-1H-indene-2-carbonyl)indolin-6-yl)(imino)(methyl)-λ^6-sulfanone] | 188 | 45 |
| CC1CN(C(=O)[C@H]2Cc3cc(-c4ccccn4)ccc3[C@@H]2C)c2cc(S(N)(=O)=O)c(F)cc21 (mixture of isomers) [Example 103, 5-fluoro-3-methyl-1-((1R,2S)-1-methyl-5-(pyridin-2-yl)-2,3-dihydro-1H-indene-2-carbonyl) indoline-6-sulfonamide] | 221 | 36 |
| CCC1Cc2cc(F)c(S(=N)(=O)O)cc2N1C(=O)[C@@H]1Cc2ccc(-c3ccccn3)cc2C1 (mixture of isomers) [Example 112] | 579 | 81 |
| C[C@@H]1Cc2ccc(S(N)(=O)=O)cc2N1C(=O)[C@H]1Cc2ccc(-c3ccccn3)cc2C1 (single isomer, unassigned) [Example 14] |  | 2480 |
| C[C@H]1Cc2ccc(S(N)(=O)=O)cc2N1C(=O)[C@H]1Cc2ccc(-c3ccccn3)cc2C1 (single isomer, unassigned) [Example 17] |  | 551 |
| C[S@@](=N)(=O)c1ccc2c(c1)N(C(=O)[C@@H]1Cc3ccc(-c4ccccn4)cc3C1)CC2 (single isomer, unassigned) [Example 31] | 9380 | 849 |
| C[C@@H]1CN(C(=O)[C@H]2Cc3cc(-c4ccccn4)ccc3[C@@H]2C)c2cc(S(N)(=O)=O)c(F)cc21 (single isomer, unassigned) [Example 105] | 251 | 45 |
| Cc1c(S(N)(=O)=O)ccc2c1N(C(=O)C1Cc3ccc(-c4ccccn4)cc3C1)CC2 (centres unmarked) [Example 1] |  | 721 |
| Cc1cc(S(N)(=O)=O)cc2c1CCN2C(=O)C1Cc2ccc(-c3ccccn3)cc2C1 (centres unmarked) [Example 2] | 23600 | 65 |
| NS(=O)(=O)c1ccc2c(c1F)N(C(=O)C1Cc3ccc(-c4ccccn4)cc3C1)CC2 (centres unmarked) [Example 4] | ≥ 25000 | 284 |
| NS(=O)(=O)c1cc(F)c2c(c1)N(C(=O)C1Cc3ccc(-c4ccccn4)cc3C1)CC2 (centres unmarked) [Example 6] | ≥ 25000 | 72 |
| NS(=O)(=O)c1cc(Cl)c2c(c1)N(C(=O)C1Cc3ccc(-c4ccccn4)cc3C1)CC2 (centres unmarked) [Example 7] | ≥ 25000 | 62 |
| NS(=O)(=O)c1ccc2c(c1)N(C(=O)C1Cc3cc(F)c(-c4ccccn4)cc3C1)CC2 (centres unmarked) [Example 9] | 2600 | 105 |
| NS(=O)(=O)c1ccc2c(c1)N(C(=O)C1Cc3ccc(-c4ccccn4)c(F)c3C1)CC2 (centres unmarked) [Example 10] |  | 537 |
| NS(=O)(=O)c1ccc2c(c1)N(C(=O)C1Cc3ccc(-c4ccccn4)c(Cl)c3C1)CC2 (centres unmarked) [Example 11] |  | 7660 |
| NS(=O)(=O)c1ccc2c(c1)N(C(=O)C1Cc3cc(Cl)c(-c4ccccn4)cc3C1)CC2 (centres unmarked) [Example 12] |  | 5040 |
| NS(=O)(=O)c1cc2c(cc1F)CCN2C(=O)C1Cc2cc(-c3ccccn3)cc(F)c2C1 (centres unmarked) [Example 13] | ≥ 10000 | 250 |
| NS(=O)(=O)c1ccc2c(c1)N(C(=O)C1Cc3ccc(-c4cncc(F)n4)cc3C1)CC2 (centres unmarked) [Example 18] |  | 180 |

| Structure (SMILES) | EC50 [1] [nM] | EC50 (read-out: EC50-HSV2-FBS) [nM] |
| --- | --- | --- |
| NS(=O)(=O)c1ccc2c(c1)N(C(=O)C1Cc3ccc(-c4nccs4)cc3C1)CC2 (centres unmarked) [Example 20] |  | 91 |
| Cc1csc(-c2ccc3c(c2)CC(C(=O)N2CCc4ccc(S(N)(=O)=O)cc42)C3)n1 (centres unmarked) [Example 22] |  | 48 |
| NS(=O)(=O)c1ccc2c(c1)N(C(=O)C1Cc3ccc(-c4ccsn4)cc3C1)CC2 (centres unmarked) [Example 24] | ≥ 25000 | 19 |
| Cc1nc(-c2ccc3c(c2)CC(C(=O)N2CCc4ccc(S(N)(=O)=O)cc42)C3)cs1 (centres unmarked) [Example 25] | ≥ 25000 | 32 |
| COc1nc(-c2ccc3c(c2)CC(C(=O)N2CCc4ccc(S(N)(=O)=O)cc42)C3)cs1 (centres unmarked) [Example 26] |  | 131 |
| N#Cc1nc(-c2ccc3c(c2)CC(C(=O)N2CCc4ccc(S(N)(=O)=O)cc42)C3)cs1 (centres unmarked) [Example 27] |  | 383 |
| CS(=N)(=O)c1ccc2c(c1)N(C(=O)C1Cc3ccc(-c4ccccn4)cc3C1)CC2 (centres unmarked) [Example 29, imino(methyl)(1-(5-(pyridin-2-yl)-2,3-dihydro-1H-indene-2-carbonyl)indolin-6-yl)-λ^6-sulfanone] | 3240 | 193 |
| C[S@@](=N)(=O)c1cc2c(cc1F)CCN2C(=O)[C@@H]1Cc2ccc(-c3ccccn3)cc2C1 [Example 40, (R)-(5-fluoro-1-((R)-5-(pyridin-2-yl)-2,3-dihydro-1H-indene-2-carbonyl)indolin-6-yl)(imino)(methyl)-16-sulfanone] | 816 | 196 |
| C[C@@H]1Cc2cc(F)c(S(N)(=O)=O)cc2N1C(=O)[C@@H]1Cc2cc(-c3ccccn3)ccc2O1 [Example 43] | 9270 | 352 |
| NS(=O)(=O)c1ccc2c(c1)N(C(=O)[C@@H]1Cc3ccc(-c4cc(F)ccc4F)cc3C1)CC2 [Example 45, (R)-1-(5-(2,5-difluorophenyl)-2,3-dihydro-1H-indene-2-carbonyl)indoline-6-sulfonamide] | ≥ 10000 | 67 |
| C[C@@H]1c2cc(F)c(S(N)(=O)=O)cc2N(C(=O)[C@@H]2Cc3ccc(-c4ccccn4)cc3C2)[C@H]1C [Example 47, (2S,3R)-5-fluoro-2,3-dimethyl-1-((R)-5-(pyridin-2-yl)-2,3-dihydro-1H-indene-2-carbonyl)indoline-6-sulfonamide] | 3660 | 423 |
| C[C@H]1c2cc(F)c(S(N)(=O)=O)cc2N(C(=O)[C@@H]2Cc3ccc(-c4ccccn4)cc3C2)[C@H]1C [Example 49, (2S,3S)-5-fluoro-2,3-dimethyl-1-((R)-5-(pyridin-2-yl)-2,3-dihydro-1H-indene-2-carbonyl)indoline-6-sulfonamide] | 1040 | 162 |
| CS(=N)(=O)c1cc2c(cc1F)CCN2C(=O)[C@@H]1Cc2ccc(-c3cc(F)ccc3F)cc2C1 (stereo partly drawn) [Example 51, (1-((R)-5-(2,5-difluorophenyl)-2,3-dihydro-1H-indene-2-carbonyl)-5-fluoroindolin-6-yl)(imino)(methyl)-λ^6-sulfanone] | 239 | 53 |
| C[S@@](=N)(=O)c1cc2c(cc1F)CCN2C(=O)[C@@H]1Cc2ccc(-c3cc(F)ccc3F)cc2C1 [Example 52] | 2000 | 340 |
| C[C@H]1Cc2ccc(S(N)(=O)=O)cc2N1C(=O)C1Cc2cc(-c3ccccn3)ccc2O1 (some centres unmarked) [Example 56] | 2220 | 255 |
| C[C@H]1Cc2cc(Cl)c(S(N)(=O)=O)cc2N1C(=O)[C@@H]1Cc2ccc(-c3ccccn3)cc2C1 [Example 59, (S)-5-chloro-2-methyl-1-((R)-5-(pyridin-2-yl)-2,3-dihydro-1H-indene-2-carbonyl)indoline-6-sulfonamide] | ≥ 10000 | 385 |
| NS(=O)(=O)c1ccc2c(c1)N(C(=O)C1Cc3ccc(-c4ccccc4)cc3C1)CC2 (centres unmarked) [Example 69, 1-(5-phenyl-2,3-dihydro-1H-indene-2-carbonyl) indoline-6-sulfonamide] | ≥ 25000 | 119 |
